# Measured values published in patent US20120046457A1, “PREPARATION OF DECITABINE” (DR. REDDY'S LABORATORIES, INC., priority 2009, published 2012).
# What was measured:
# [1] = cited from earlier work
# [2] = Hygroscopicity of decitabine (hygroscopic stability); type: physicochemical; settings: for Moisture (Wt. %): room temperature
# Experimental: Decitabine obtained from Example 10 is tested for hygroscopic stability. Samples are analyzed as initially prepared, and at intervals after 1 day and 7 days of storage at room temperature; the results are tabulated below.
# [3] = Storage stability of packaged anhydrous crystalline decitabine (TGA weight loss); type: physicochemical; settings: 40±2° C., relative humidity 75±5%, described packaging
# Experimental: Thermogravimetric analyses reported herein for decitabine were carried out using a SHIMADZU, DTG-60, Thermogravimetric Analyzer with a ramp of 10° C./minute up to 250° C.
# In embodiments, the present application provides a storage system for decitabine. A storage system of the present application comprises at least one sealed polymeric bag, (e.g., a transparent or opaque polyethylene bag having a thickness of about 0.1 mm to about 0.5 mm) or a combination of such bags, which, if desired, may be sealed inside a laminated aluminum bag. An oxygen absorbent and a moisture absorbent (or desiccant), may be included between one or more of such bags. Finally, the packaged material is stored in sealed HDPE containers.
# Anhydrous crystalline decitabine with an initial XRD pattern substantially in accordance with FIG. 4 remains stable for a period at least about 4 months, or about 6 months, when stored at 40±2° C. and a relative humidity of 75±5% under the packaging conditions described above. The TGA weight losses of representative samples stored under these conditions are tabulated below.
"Moisture (Wt. %) ([2]; 40-50% RH, 1 day)","Moisture (Wt. %) ([2]; 40-50% RH, 7 days)","Moisture (Wt. %) ([2]; 40-50% RH, initial)","Moisture (Wt. %) ([2]; 90% RH, 1 day)","Moisture (Wt. %) ([2]; 90% RH, 7 days)","Moisture (Wt. %) ([2]; 90% RH, initial)",moisture content acquired ([2]; exposed to the atmosphere),solid form after moisture uptake ([2]; exposed to the atmosphere),period for which it remains stable [3],TGA Weight Loss (%) ([3]; storage time 1 month),TGA Weight Loss (%) ([3]; storage time 2 months),TGA Weight Loss (%) ([3]; storage time 3 months),TGA Weight Loss (%) ([3]; storage time 4 months),SMILES,stability ([1]; room temperature),"moisture at equilibrium ([1]; exposed to humidity, monohydrate formed)"
,,,,,,,,,,,,,Nc1ncn([C@H]2C[C@H](O)[C@@H](CO)O2)c(=O)n1 [Decitabine monohydrate],stable,
6.63 Wt. %,7.12 Wt. %,0.18 Wt. %,5.46 Wt. %,7.17 Wt. %,0.18 Wt. %,up to 1 mole,change to a monohydrate form,at least 4 months,0.07%,0.15%,0.26%,0.16%,"Nc1ncn([C@H]2C[C@H](O)[C@@H](CO)O2)c(=O)n1 [Decitabine, 4-amino-1-(2-deoxy-β-D-erythropentofuranosyl)-1,3,5-triazin-2(1H)-one]",,7%
